Results reported in article PMC11677752 (Pharmaceutics, 2024).
Each block holds one compound with its values, some of them ahead of it.

How the values were obtained:
[1] = test system: MRP2; conditions: cited from earlier work
[2] = Regional luminal fluid pH in rats; type: in vivo; conditions: lansoprazole 5 mg/mL/kg i.p. 1 h before oral 5-ASA solution in 5% NaHCO3; 3 h after 5-ASA; untreated control rats […] ± 0.60, p = 0.07
[3] = parameters: method as in PMID 3557190; conditions: healthy volunteers, intravenous dose 0.50 g, oral dose 2.42 g; cited from earlier work
[4] = test system: NAT; conditions: cited from earlier work; for Inhibition of 5-ASA Ac-CoA-dependent metabolism: alternative NAT substrates
[5] = 5-ASA membrane distribution study in rats (GI membrane concentrations); conditions: fed rats, oral 30 mg/2.2 mL/kg
Description: The animal study was performed according to the Care and Use of Laboratory Animals of the Committee for Animal Experiments of Fukuyama University (2023-A-10). Male Sprague Dawley rats were purchased from Japan SLC, Inc. (Hamamatsu, Japan). After feeding for several days, the rats that weighed 200 to 300 g were used for the membrane distribution studies. […] Separately, the fed rats were treated with lansoprazole, which was dissolved with a small amount of dimethyl sulfoxide (DMSO) and then diluted with physiological saline to make a lansoprazole solution (5 mg/mL); this solution was injected intraperitoneally at a 5 mg/mL/kg dose. […] One milliliter of water was poured into each isolated segment’s lumen and the luminal fluid pH was measured using a compact pH meter (HORIBA, LAQUA twin®, Kyoto, Japan). The intestinal tract was opened and cleaned with ice-cold 0.9% NaCl solution, frozen in liquid nitrogen, and stored at −80 °C until analysis.
An L-column 2 ODS (150 mm × 4.6 mm, particle size 5 µm, CERI Co., Ltd., Saitama, Japan) was used, and the mobile phase was a mixture of 0.1 M acetic acid, acetonitrile, and triethylamine (920:100:2, v/v/v). The mobile phase flow rate was 1 mL/min. […] The HPLC system (Shimadzu, Kyoto, Japan) comprised a model LC20AD pump, a 20 µL fixed injection loop, and a fluorescence spectrophotometer (Shimadzu, RF10AXL). […]

[6] = test system: peptide transporter 1 (PEPT1); parameters: method as in PMID 28867741; conditions: cited from earlier work
[7] = three animal species (rats, rabbits, and pigs); cited from earlier work

SMILES: CN(C)C(=O)CCSC(SCCC(=O)O)c1cccc(/C=C/c2ccc3ccc(Cl)cc3n2)c1 (centres unmarked) [MK571]
PappBA/PappAB permeability ratio of AC-5-ASA in presence of the MRP inhibitor ([1]; Caco-2 cells): ~1

SMILES: Cc1c(OCC(F)(F)F)ccnc1C[S+]([O-])c1nc2ccccc2[nH]1 (centres unmarked) [lansoprazole]
Gastric pH [2]: 4.77 ± 0.12

Time for remaining unabsorbed 5-ASA in the small intestine to reach the distal intestine [5]: ≤ 8 h
Time for some fraction of orally administered 5-ASA to reach the cecum/proximal colon [5]: ≤ 3 h
SMILES: Nc1ccc(O)c(C(=O)O)c1 [5-ASA, 5-Aminosalicylic acid]
Absolute oral bioavailability [3]: 15.5%
Km ([4]; saturable, read-out: Km of Ac-CoA-dependent metabolism): 5.8 µM
Substrate for MRP2 [1]: is not a substrate and not
Inhibition of PEPT1-mediated uptake transport [6]: can inhibit

SMILES: O=c1c(O)c(-c2ccc(O)c(O)c2)oc2cc(O)cc(O)c12 [quercetin]
PappBA/PappAB permeability ratio of AC-5-ASA in presence of the MRP inhibitor ([1]; Caco-2 cells): ~1

SMILES: CC(=O)Nc1ccc(O)c(C(=O)O)c1 [AC-5-ASA, N-acetyl-5-ASA]
PappBA/PappAB ratio ([1]; Caco-2 cells): 4.89
Substrate for MRP2 [1]: is a substrate

SMILES: C[C@]12C=CC(=O)C=C1CC[C@@H]1[C@@H]2[C@@H](O)C[C@@]2(C)[C@H]1CC[C@]2(O)C(=O)CO [prednisolone]
Correlation of solubility with gastrointestinal pH [7]: not correlated significantly

SMILES: NNC(=O)c1ccncc1 [isoniazid]
Inhibition of 5-ASA Ac-CoA-dependent metabolism [4]: inhibited

SMILES: Nc1ccc(C(=O)N[C@@H](CCC(=O)O)C(=O)O)cc1 [p-aminobenzoylglutamate]
Inhibition of 5-ASA Ac-CoA-dependent metabolism [4]: inhibited
